{"source": "patent US6545056B1", "about": "“Aryl nitrone therapeutics and methods for treating inflammatory bowel disease” (Centaur Pharmaceuticals, Inc., priority 1999, dated 2003)", "origin": "cited, not measured here", "test_system": "senescence-accelerated mice", "data": [{"smiles": "CC(C)(C)/[N+]([O-])=C/c1ccccc1", "note": "[PBN, α-phenyl-t-butyl nitone]", "values": [{"measurement": "increase of the life span", "result": "one third"}]}]}
